The source made the active and inactive calls.
Columns and labels:
[1] = Luminescence Cell-Based Dose Confirmation HTS to Identify Activators of 5'UTR Stem-Loop Driven Alpha-Synuclein mRNA Translation in H4 Neuroglioblastoma Cells. [Related pubchem assays: 1829 (Project Summary), 1814 (Primary HTS)]; format: functional
[2] = Luminescence Cell-Based Dose Response HTS to Identify Activators of Luciferase Translation or Activity in H4 […] Cells. [Related pubchem assays: 1829 (Project Summary), 1814 (Primary HTS)]; format: functional
[3] = system: H4; assay: Luminescence Cell-Based Dose Response HTS to Identify Activators of 5'UTR Stem-Loop Driven Prion Protein mRNA Translation in H4 Neuroglioblastoma Cells. [Related pubchem assays: 1829 (Project Summary), 1814 (Primary HTS)]; format: functional; details: Homo sapiens
[4] = biological target: T1, RNA-binding protein pos-1 (Caenorhabditis elegans, UniProt G5EF15); assay: disruptors of C. elegans POS-1 RNA interaction – biochemical, fluorescence polarization, dose response (AID 1964);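 also: purified POS-1 fused to maltose binding protein made in E. coli; potency of compounds blocking POS-1 binding to fluorescent RNA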
T1 sequence (G5EF15 whole entry): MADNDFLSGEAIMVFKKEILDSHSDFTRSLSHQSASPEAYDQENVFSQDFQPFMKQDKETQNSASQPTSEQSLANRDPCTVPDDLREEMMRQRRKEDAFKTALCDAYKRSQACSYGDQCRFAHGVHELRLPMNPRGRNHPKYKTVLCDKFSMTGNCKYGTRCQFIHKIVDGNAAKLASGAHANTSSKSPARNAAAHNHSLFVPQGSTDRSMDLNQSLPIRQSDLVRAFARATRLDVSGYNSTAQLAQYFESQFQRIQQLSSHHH

[5] = biological target: T2, Zinc finger protein mex-5 (Caenorhabditis elegans, UniProt Q9XUB2); assay: potency of MEX-5 RNA-binding blockers – biochemical, C. elegans, fluorescence polarization, dose response (AID 1960)
T2 sequence (Q9XUB2 whole entry): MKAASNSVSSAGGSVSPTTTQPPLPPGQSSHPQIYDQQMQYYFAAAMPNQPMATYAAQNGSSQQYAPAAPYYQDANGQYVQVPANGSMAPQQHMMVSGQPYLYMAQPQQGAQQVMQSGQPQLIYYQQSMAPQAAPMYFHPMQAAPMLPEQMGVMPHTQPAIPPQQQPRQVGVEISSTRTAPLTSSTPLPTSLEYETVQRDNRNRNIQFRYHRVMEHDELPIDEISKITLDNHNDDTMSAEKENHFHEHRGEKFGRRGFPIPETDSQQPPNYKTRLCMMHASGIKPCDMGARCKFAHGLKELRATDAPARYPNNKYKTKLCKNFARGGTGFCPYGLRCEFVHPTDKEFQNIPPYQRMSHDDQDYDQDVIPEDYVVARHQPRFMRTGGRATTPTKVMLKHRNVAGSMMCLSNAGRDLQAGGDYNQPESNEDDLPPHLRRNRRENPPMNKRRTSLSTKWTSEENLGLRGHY

[6] = Luminescence Cell-Based Dose Retest to Confirm Inhibitors of Cancer Stem Cells. [Related pubchem assays (depositor defined):AID2717, AID2721]; format: functional; details: Homo sapiens
[7] = biological target: T3, Replicative DNA helicase DnaB (Mycobacterium tuberculosis, UniProt P9WMR3); assay: DnaB intein splicing inhibitors, dose response, biochemical, cell-free fluorescence (AID 449749); format: functional
T3 sequence (P9WMR3 whole entry): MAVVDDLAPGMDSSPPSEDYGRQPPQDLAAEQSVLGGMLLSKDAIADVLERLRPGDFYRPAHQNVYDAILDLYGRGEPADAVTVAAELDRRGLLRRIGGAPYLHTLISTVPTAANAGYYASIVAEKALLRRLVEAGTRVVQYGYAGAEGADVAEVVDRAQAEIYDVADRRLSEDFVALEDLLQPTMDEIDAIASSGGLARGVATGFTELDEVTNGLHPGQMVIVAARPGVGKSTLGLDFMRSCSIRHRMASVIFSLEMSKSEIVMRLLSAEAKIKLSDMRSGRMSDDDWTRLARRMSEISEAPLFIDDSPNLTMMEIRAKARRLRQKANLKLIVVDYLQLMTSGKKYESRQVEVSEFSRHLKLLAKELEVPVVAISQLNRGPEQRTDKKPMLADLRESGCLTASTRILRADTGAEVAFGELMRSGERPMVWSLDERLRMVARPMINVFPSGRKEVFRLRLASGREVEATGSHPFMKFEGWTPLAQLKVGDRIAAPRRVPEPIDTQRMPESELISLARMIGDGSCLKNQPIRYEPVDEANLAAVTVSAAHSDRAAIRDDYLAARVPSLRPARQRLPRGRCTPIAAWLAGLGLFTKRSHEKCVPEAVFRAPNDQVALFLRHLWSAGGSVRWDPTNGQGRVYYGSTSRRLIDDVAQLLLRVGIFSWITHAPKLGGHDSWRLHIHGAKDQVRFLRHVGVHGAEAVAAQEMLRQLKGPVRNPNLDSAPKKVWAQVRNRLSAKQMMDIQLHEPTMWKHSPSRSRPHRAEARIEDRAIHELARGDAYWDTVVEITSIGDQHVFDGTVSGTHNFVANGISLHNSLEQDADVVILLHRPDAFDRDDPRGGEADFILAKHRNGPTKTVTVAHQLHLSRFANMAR

[8] = biological target: T4, Protein RecA (Mycobacterium tuberculosis, UniProt P9WHJ3); assay: Fluorescence Cell-Free Homogeneous Dose Retest to Identify Inhibitors of RecA-Intein Splicing Activity. [Related pubchem assays (depositor defined):AID2097, AID2223, AID489010, AID492950]; format: functional
T4 sequence (P9WHJ3 whole entry): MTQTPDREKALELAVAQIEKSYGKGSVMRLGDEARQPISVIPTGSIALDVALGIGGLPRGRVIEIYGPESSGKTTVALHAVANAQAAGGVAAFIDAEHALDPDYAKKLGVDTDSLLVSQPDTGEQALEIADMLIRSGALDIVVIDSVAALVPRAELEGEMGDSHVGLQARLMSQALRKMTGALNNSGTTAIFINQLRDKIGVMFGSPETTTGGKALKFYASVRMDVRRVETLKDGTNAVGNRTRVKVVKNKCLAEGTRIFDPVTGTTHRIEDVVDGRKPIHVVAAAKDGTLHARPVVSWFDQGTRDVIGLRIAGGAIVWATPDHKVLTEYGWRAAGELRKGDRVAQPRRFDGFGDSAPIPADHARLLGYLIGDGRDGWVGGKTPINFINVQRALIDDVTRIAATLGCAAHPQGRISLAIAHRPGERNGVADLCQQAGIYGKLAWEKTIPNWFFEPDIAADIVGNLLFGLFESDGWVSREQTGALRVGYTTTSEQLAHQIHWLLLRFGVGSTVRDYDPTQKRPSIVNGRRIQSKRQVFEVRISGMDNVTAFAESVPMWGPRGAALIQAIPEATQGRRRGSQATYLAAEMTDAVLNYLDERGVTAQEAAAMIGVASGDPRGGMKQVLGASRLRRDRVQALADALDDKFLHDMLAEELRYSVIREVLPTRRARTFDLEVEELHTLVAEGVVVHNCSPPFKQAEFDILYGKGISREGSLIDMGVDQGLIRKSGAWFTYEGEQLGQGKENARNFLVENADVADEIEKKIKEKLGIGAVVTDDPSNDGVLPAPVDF

[9] = biological target: T5, Ubiquitin-conjugating enzyme E2 N (Homo sapiens, UniProt P61088); format: functional;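 also: Dose-response confirmation in a TR-FRET assay detecting UBC13-driven polyubiquitin chain formation, inhibition measured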
T5 sequence (P61088 whole entry): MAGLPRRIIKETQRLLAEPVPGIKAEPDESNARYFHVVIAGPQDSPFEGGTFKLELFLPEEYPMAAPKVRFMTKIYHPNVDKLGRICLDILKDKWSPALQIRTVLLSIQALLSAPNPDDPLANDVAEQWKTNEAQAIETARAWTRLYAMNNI

[10] = system: INS1; assay: INS-1E survival protection against cytokine death – cell-based, luminescence, retest, dose response (AID 449756); format: functional; details: Rattus norvegicus;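 also: cell death triggered by IL-1 beta plus TNF-alpha plus IFN-gamma mixture; protective hits raise ATP signal compared with cytokine alone wells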
[11] = system: H9c2; assay: cells; format: functional, cell-based; details: Rattus norvegicus, H9c2, Myocardium;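 also: confirmatory concentration-response retest of ultra-high-throughput screening hits for modulation of myocardial damage; cell death induced by hydrogen peroxide oxidative stress; compound pretreatment for 60 min then peroxide exposure for 2 h; potency is for protecting the cells against peroxide damage rather than for killing them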
[12] = biological target: FAD-linked sulfhydryl oxidase ALR (Homo sapiens, UniProt P55789); assay: ALR-catalysed DTT oxidation blockers – biochemical, H2O2 detection, luminescence, cherry-pick, dose response (AID 493248)
Chain of FAD-linked sulfhydryl oxidase ALR (P55789 whole entry): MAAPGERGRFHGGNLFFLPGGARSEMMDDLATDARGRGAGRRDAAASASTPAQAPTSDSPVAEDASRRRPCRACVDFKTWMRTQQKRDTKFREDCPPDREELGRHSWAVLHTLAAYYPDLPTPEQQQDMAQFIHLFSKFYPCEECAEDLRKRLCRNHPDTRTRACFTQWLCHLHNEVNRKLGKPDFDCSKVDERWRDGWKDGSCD

[13] = reduction of Shn3 3'UTR-driven luciferase in osteoblasts – cell-based, Clone20 osteoblasts, firefly luciferase, cherry-picked, dose response (AID 624132); format: functional;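 also: firefly luciferase luminescence from reporter carrying the Shn3 3'UTR in osteoblasts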
[14] = cells; format: functional

Structure (SMILES): Cc1cnc(C(=O)Nc2ccc(OC(F)(F)F)cc2)cn1
- EC50 [1]: 13.9 µM (active)
- EC50 [2]: 17.5 µM (active)
- EC50 [3]: 98.1 µM (active)

Structure (SMILES): COc1ccc(C2C=C(c3ccc(Br)s3)Nc3ncnn32)cc1OC (stereo unspecified)
- EC50 [4]: 7.82 µM (active)
- EC50 [5]: 6.36 µM (inconclusive)

Structure (SMILES): O=C(Nc1ccc(Cl)c(Cl)c1)Nc1ccccc1NS(=O)(=O)c1cccs1
- AC50 [6]: 7.6 µM (active)
- AC50 [7]: 4.19 µM (active)
- EC50 [8]: 29.1 µM (active)

Structure (SMILES): COC(=O)c1ccccc1-n1c(CCC(=O)O)ccc1-c1ccccc1
- EC50 [4]: > 300 µM (not active)
- EC50 [5]: > 300 µM (not active)

Structure (SMILES): Cc1cc(N2CCN(C)CC2)nc2ccc(NC(=S)N3CCN(c4cccc(Cl)c4)CC3)cc12
- IC50 [9]: > 20 µM (inactive)

Structure (SMILES): COc1ccccc1NCC(=O)N1CCN(S(=O)(=O)c2ccccc2)CC1
- AC50 [10]: > 260 µM (inactive)

Structure (SMILES): Cc1cc(NC(=O)C2CCCCC2)nc2c1c(=O)oc1ccccc12
- IC50 [11]: 7.59 µM (active)

Structure (SMILES): O=C(NCCCN1CCCC1)c1ccc2c(c1)N(Cc1ccccc1)CCS2
- IC50 [9]: > 20 µM (inactive)
- AC50 [12]: 0.022 µM (active)

Structure (SMILES): Cc1ccc(NC(=O)C2=C(O)CCn3c2nc2ccccc23)cc1
- EC50 [1]: > 120 µM (not active)
- EC50 [2]: 12.5 µM (active)
- EC50 [3]: > 60 µM (not active)

Structure (SMILES): COc1ccc(NC(=O)c2oc3ccc(S(=O)(=O)N4CCOCC4)cc3c2C)cc1
- IC50 [11]: > 79 µM (inactive)

Structure (SMILES): Cn1c(=O)c2nc(NN=Cc3cccc(Br)c3)[nH]c2n(C)c1=O
- IC50 [11]: > 79 µM (inactive)

Structure (SMILES): COc1ccc(C(O)c2nc(-c3cccc(F)c3)cs2)cc1 (stereo unspecified)
- AC50 [13]: 41.9 µM (active)

Structure (SMILES): Cc1ccc(S(=O)(=O)C(C#N)c2nc3ccccc3nc2N2CCC(C)CC2)cc1 (stereo unspecified)
- EC50 [4]: > 300 µM (inconclusive)
- EC50 [5]: 24.6 µM (active)

Structure (SMILES): Cc1ccc(/N=C/c2c(O)[nH]c3ccccc23)c([N+](=O)[O-])c1
- EC50 [3]: 22.3 µM (inconclusive)

Structure (SMILES): Cc1ccc(S(=O)(=O)N2CCOCC2)cc1C(=O)Nc1ccc(S(=O)(=O)Nc2nccs2)cc1
- EC50 [4]: > 300 µM (not active)
- EC50 [5]: > 300 µM (not active)

Structure (SMILES): CCn1ccnc1CN(C)Cc1nc(-c2ccc3c(c2)OCO3)no1
- EC50 [1]: 6.38 µM (active)
- EC50 [2]: 12.5 µM (active)
- EC50 [3]: 21.4 µM (active)

Structure (SMILES): CCC(=O)OC1(C)C(=O)C=C2C=C(CCCC(=O)OC)OC=C2C1=O (stereo unspecified)
- EC50 [4]: 27.8 µM (active)
- EC50 [5]: 22.8 µM (active)

Structure (SMILES): O=C1N=C(Nc2ccccc2)S/C1=C\c1cccn1-c1ccccc1
- EC50 [1]: > 120 µM (not active)
- EC50 [2]: 32.5 µM (active)
- EC50 [3]: > 120 µM (not active)

Structure (SMILES): Cc1cc(NC(=O)c2cccs2)cc(-c2nc3ncccc3o2)c1O
- IC50 [11]: > 79 µM (inactive)

Structure (SMILES): Cc1ccc2c(c1)CCCN2C(=O)CCc1nc(O)c2ccccc2n1
- IC50 [11]: > 79 µM (inactive)

Structure (SMILES): O=C(N/N=C/c1ccccn1)c1cccc([N+](=O)[O-])c1
- IC50 [14]: 22.2 µM (active)
- IC50 [11]: > 79 µM (inactive)

Structure (SMILES): CCC(=O)OC1(C)C(=O)C=C2C=C(CCCCNC(=O)OC(C)(C)C)OC=C2C1=O (stereo unspecified)
- EC50 [4]: 33.5 µM (active)
- EC50 [5]: 28.4 µM (active)

Structure (SMILES): O=[N+]([O-])c1ccc2c(c1)nc(O)c1ccccc12
- IC50 [11]: > 79 µM (inactive)

Structure (SMILES): O=C1c2ccccc2C(=O)N1CCCc1nc(-c2ccncc2)no1
- EC50 [4]: > 300 µM (not active)
- EC50 [5]: > 300 µM (not active)

Structure (SMILES): CCOC(=O)c1[nH]c(C)c(C(=O)Nc2ccc(C)c(Cl)c2)c1C
- EC50 [1]: > 120 µM (not active)
- EC50 [2]: 13.3 µM (active)
- EC50 [3]: > 120 µM (not active)

Structure (SMILES): COc1ccc(NC2=C(Cl)C(=O)N(CCc3ccccc3)C2=O)c(OC)c1
- EC50 [1]: 5.35 µM (active)
- EC50 [2]: 8.34 µM (active)
- EC50 [3]: 33.2 µM (active)

Structure (SMILES): CCn1c(C)cc(/C=C2\C(=O)NC(=O)N(c3ccccc3C)C2=O)c1C
- EC50 [4]: > 300 µM (not active)
- EC50 [5]: > 300 µM (not active)

Structure (SMILES): COc1ccccc1CNC(=O)c1ccc2c(=O)n(CCCN3CCCC3=O)c(=S)[nH]c2c1
- IC50 [9]: > 20 µM (inactive)

Structure (SMILES): COc1ccccc1NC(=O)c1cc(-c2cc(OC)c(OC)c(OC)c2)nc2ccccc12
- IC50 [11]: > 79 µM (inactive)

Structure (SMILES): COC(=O)c1cc(OC)c(OC)cc1NC(=O)c1ccc(C)o1
- IC50 [11]: > 79 µM (inactive)

Structure (SMILES): Oc1ccc(O)c(Cc2nc3ccccc3s2)c1
- AC50 [7]: 33.1 µM (active)
- EC50 [8]: > 380 µM (inactive)

Source: ChEMBL document CHEMBL1201862, “PubChem BioAssay data set” (2004)
